Laboratory results published in PubChem BioAssay (NCI).
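1) Cells in 96-well plates. 2) Compound, 48 h, 5 concentrations. 3) Linear interpolation between surrounding doses. 4) Unreached endpoint = highest concentration. Here, GI50 denotes the concentration required for 50% inhibition of growth. TGI: total growth inhibition.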

Assays:
Experiment in all cases: NCI anticancer screen, dose series, 48 h
HOP-92 NSCLC = system: HOP-92 NSCLC
NCI-H522 lung = system: NCI-H522 lung
RXF 393 renal = system: RXF 393 renal
786-0 renal = system: 786-0 renal
LOX IMVI melanoma = system: LOX IMVI melanoma
RPMI-8226 leukemia = system: RPMI-8226 leukemia
UO-31 renal = system: UO-31 renal
SNB-75 CNS = system: SNB-75 CNS
TK-10 renal = system: TK-10 renal
OVCAR-4 ovarian = system: OVCAR-4 ovarian
MCF7 breast = system: MCF7 breast
ACHN renal = system: ACHN renal
CAKI-1 renal = system: CAKI-1 renal
SK-OV-3 ovarian = system: SK-OV-3 ovarian
OVCAR-3 ovarian = system: OVCAR-3 ovarian
KM12 colon = system: KM12 colon
BT-549 breast = system: BT-549 breast
NCI-H460 lung = system: NCI-H460 lung
A498 renal = system: A498 renal
HL-60(TB) leukemia = system: HL-60(TB) leukemia
PC-3 prostate = system: PC-3 prostate
SF-268 CNS = system: SF-268 CNS
M14 melanoma = system: M14 melanoma
SK-MEL-28 melanoma = system: SK-MEL-28 melanoma
NCI/ADR-RES ovarian = system: NCI/ADR-RES ovarian
EKVX NSCLC = system: EKVX NSCLC
U251 CNS = system: U251 CNS
K-562 leukemia = system: K-562 leukemia
SF-295 CNS = system: SF-295 CNS
HCT-15 colon = system: HCT-15 colon
MDA-MB-231 breast = system: MDA-MB-231 breast
DU-145 prostate = system: DU-145 prostate
NCI-H23 lung = system: NCI-H23 lung
SW-620 colon = system: SW-620 colon
SK-MEL-2 melanoma = system: SK-MEL-2 melanoma
CCRF-CEM leukemia = system: CCRF-CEM leukemia
HT29 colon = system: HT29 colon
HS 578T breast = system: HS 578T breast
OVCAR-5 ovarian = system: OVCAR-5 ovarian
T-47D breast = system: T-47D breast
SK-MEL-5 melanoma = system: SK-MEL-5 melanoma
SNB-19 CNS = system: SNB-19 CNS
COLO 205 colon = system: COLO 205 colon
OVCAR-8 ovarian = system: OVCAR-8 ovarian
NCI-H226 lung = system: NCI-H226 lung
UACC-62 melanoma = system: UACC-62 melanoma
MDA-MB-468 breast = system: MDA-MB-468 breast
SR leukemia = system: SR leukemia
SF-539 CNS = system: SF-539 CNS
A549 NSCLC = system: A549 NSCLC
HCC-2998 colon = system: HCC-2998 colon
HOP-62 NSCLC = system: HOP-62 NSCLC
UACC-257 melanoma = system: UACC-257 melanoma
MOLT-4 leukemia = system: MOLT-4 leukemia
MALME-3M melanoma = system: MALME-3M melanoma
IGROV1 ovarian = system: IGROV1 ovarian
SN12C renal = system: SN12C renal
HCT-116 colon = system: HCT-116 colon
MDA-MB-435 = system: MDA-MB-435

`COc1ccccc1NC(=O)N/N=C/c1c[nH]c2ccccc12` showed a GI50 (HOP-92 NSCLC) of 1.85 µM, a TGI (HOP-92 NSCLC) of 10.4 µM and a GI50 (NCI-H522 lung) of 0.177 µM. It also gave a TGI (NCI-H522 lung) of 0.428 µM, a GI50 (RXF 393 renal) of 1.66 µM and a TGI (RXF 393 renal) of 6.45 µM. The GI50 (786-0 renal) was 1.23 µM, the TGI (786-0 renal) was 3.77 µM and the GI50 (LOX IMVI melanoma) was 0.803 µM. The TGI (LOX IMVI melanoma) was 14.9 µM, the GI50 (RPMI-8226 leukemia) was 1.39 µM and the TGI (RPMI-8226 leukemia) was 6.09 µM. It also gave a GI50 (UO-31 renal) of 3.28 µM, a TGI (UO-31 renal) of 18.4 µM and a GI50 (SNB-75 CNS) of 3.43 µM. For the same compound, the TGI (SNB-75 CNS) was 20.9 µM, the GI50 (TK-10 renal) was 4.73 µM and the TGI (TK-10 renal) was 23.8 µM. For the same compound, the GI50 (OVCAR-4 ovarian) was 4.34 µM, the TGI (OVCAR-4 ovarian) was 19.9 µM and the GI50 (MCF7 breast) was 0.423 µM. The TGI (MCF7 breast) was 12.3 µM, the GI50 (ACHN renal) was 3.13 µM and the TGI (ACHN renal) was 15.8 µM. It also gave a GI50 (CAKI-1 renal) of 2.53 µM, a TGI (CAKI-1 renal) of 13.7 µM and a GI50 (SK-OV-3 ovarian) of 2.48 µM. It also gave a TGI (SK-OV-3 ovarian) of 15.4 µM, a GI50 (OVCAR-3 ovarian) of 0.451 µM and a TGI (OVCAR-3 ovarian) of 5.47 µM. The GI50 (KM12 colon) was 0.574 µM, the TGI (KM12 colon) was 11 µM and the GI50 (BT-549 breast) was 0.194 µM. For the same compound, the TGI (BT-549 breast) was 4.69 µM, the GI50 (NCI-H460 lung) was 0.961 µM and the TGI (NCI-H460 lung) was 12.6 µM. It also gave a GI50 (A498 renal) of 10.1 µM, a TGI (A498 renal) of 22.4 µM and a GI50 (HL-60(TB) leukemia) of 0.304 µM. It also gave a TGI (HL-60(TB) leukemia) of 3.51 µM, a GI50 (PC-3 prostate) of 1.6 µM and a TGI (PC-3 prostate) of 14.7 µM. The GI50 (SF-268 CNS) was 3.06 µM, the TGI (SF-268 CNS) was 20.6 µM and the GI50 (M14 melanoma) was 0.365 µM. It also gave a TGI (M14 melanoma) of 10.8 µM, a GI50 (SK-MEL-28 melanoma) of 1.57 µM and a TGI (SK-MEL-28 melanoma) of 17.6 µM. It also gave a GI50 (NCI/ADR-RES ovarian) of 0.299 µM, a TGI (NCI/ADR-RES ovarian) of 1.31 µM and a GI50 (EKVX NSCLC) of 2.2 µM. The TGI (EKVX NSCLC) was 13.9 µM, the GI50 (U251 CNS) was 1.45 µM and the TGI (U251 CNS) was 12.5 µM. For the same compound, the GI50 (K-562 leukemia) was 0.229 µM, the TGI (K-562 leukemia) was 16.4 µM and the GI50 (SF-295 CNS) was 0.816 µM. It also gave a TGI (SF-295 CNS) of 5.9 µM, a GI50 (HCT-15 colon) of 0.348 µM and a TGI (HCT-15 colon) of 12 µM. The GI50 (MDA-MB-231 breast) was 0.824 µM, the TGI (MDA-MB-231 breast) was 12.6 µM and the GI50 (DU-145 prostate) was 2.56 µM. The TGI (DU-145 prostate) was 12.4 µM, the GI50 (NCI-H23 lung) was 1.45 µM and the TGI (NCI-H23 lung) was 10.8 µM. The GI50 (SW-620 colon) was 0.479 µM, the TGI (SW-620 colon) was 18.5 µM and the GI50 (SK-MEL-2 melanoma) was 0.67 µM. For the same compound, the TGI (SK-MEL-2 melanoma) was 4.92 µM, the GI50 (CCRF-CEM leukemia) was 0.379 µM and the TGI (CCRF-CEM leukemia) was 12.9 µM. The GI50 (HT29 colon) was 0.427 µM, the TGI (HT29 colon) was 10.6 µM and the GI50 (HS 578T breast) was 3.05 µM. For the same compound, the TGI (HS 578T breast) was 25.7 µM, the GI50 (OVCAR-5 ovarian) was 2.72 µM and the TGI (OVCAR-5 ovarian) was 15.5 µM. The GI50 (T-47D breast) was 1.04 µM, the TGI (T-47D breast) was over 100 µM and the GI50 (SK-MEL-5 melanoma) was 1.04 µM. The TGI (SK-MEL-5 melanoma) was 5.52 µM, the GI50 (SNB-19 CNS) was 2.58 µM and the TGI (SNB-19 CNS) was 16.1 µM. The GI50 (COLO 205 colon) was 0.766 µM, the TGI (COLO 205 colon) was 4.44 µM and the GI50 (OVCAR-8 ovarian) was 2.12 µM. It also gave a TGI (OVCAR-8 ovarian) of 13.9 µM, a GI50 (NCI-H226 lung) of 4.11 µM and a TGI (NCI-H226 lung) of 23 µM. It also gave a GI50 (UACC-62 melanoma) of 0.473 µM, a TGI (UACC-62 melanoma) of 12.5 µM and a GI50 (MDA-MB-468 breast) of 0.236 µM. The TGI (MDA-MB-468 breast) was 2.74 µM, the GI50 (SR leukemia) was 0.215 µM and the TGI (SR leukemia) was 12.4 µM. For the same compound, the GI50 (SF-539 CNS) was 0.704 µM, the TGI (SF-539 CNS) was 2.86 µM and the GI50 (A549 NSCLC) was 1.22 µM. For the same compound, the TGI (A549 NSCLC) was 18.2 µM, the GI50 (HCC-2998 colon) was 1.42 µM and the TGI (HCC-2998 colon) was 14.2 µM. It also gave a GI50 (HOP-62 NSCLC) of 3.01 µM, a TGI (HOP-62 NSCLC) of 18.9 µM and a GI50 (UACC-257 melanoma) of 10.7 µM. The TGI (UACC-257 melanoma) was 34.8 µM, the GI50 (MOLT-4 leukemia) was 0.381 µM and the TGI (MOLT-4 leukemia) was 11.9 µM. For the same compound, the GI50 (MALME-3M melanoma) was 0.559 µM, the TGI (MALME-3M melanoma) was 16.9 µM and the GI50 (IGROV1 ovarian) was 1.66 µM. It also gave a TGI (IGROV1 ovarian) of 20.5 µM, a GI50 (SN12C renal) of 1.1 µM and a TGI (SN12C renal) of 12.1 µM. For the same compound, the GI50 (HCT-116 colon) was 0.405 µM, the TGI (HCT-116 colon) was 3.61 µM and the GI50 (MDA-MB-435) was 0.226 µM. It also gave a TGI (MDA-MB-435) of 0.647 µM.
